Laboratory results taken from patent EP3323412A1, “FORMULATION COMPRISING 4-METHYLPYRAZOLE” (Amalicon Holding AG, priority 2016, dated 2018).

Test: in vivo
Parameters: species or system dogs
Conditions: dog, iv, 10 mg/kg
Description: The formulations of 4-MP with PEG-300 and PEG-400 show an oral bioavailability of about 110% when compared with an i.v. formulation at a dose of 10mg/kg in PK studies in dogs.
The following tables 1 to 3 show results of pharmacokinetic studies of the formulation of Example 3 (capsule containing 50 mg 4-MP and 250 mg PEG-400; Table 1) in comparison with a reference formulation (capsule containing 50 mg 4-MP and PEG-8000; Table 2) and IV administration of 4-MP. For these pharmacokinetic studies, 4-MP was administered to dogs at 10 mg/kg body weight. Table 1: Pharmacokinetic parameters of 4-methylpyrazole following oral administration of the formulation of Example 3 at 10 mg/kg: […]

For `Cc1cn[nH]c1` [4-methylpyrazole, 4-Methylpyrazole], the AUC(0-t) (AUC0-t) was 88300 ng·h/mL, the AUC(0-inf) (AUC0-∞) was 145 µg·h/mL and the clearance (CL) was 1.15 mL/min/kg. It also gave a Cmax (Cmax) of 22600 ng/mL, a Vd (Vd) of 0.94 L/kg and a Vd (Vdss) of 0.89 L/kg.
